# Results taken from publication PMC12586182 (Frontiers in Oncology, 2025).
# Legend:
# [1] = biological target: YES (Homo sapiens, UniProt P07947); test: Kinase enzyme activity assay (mobility shift assay, Carna); conditions: 1 µmol/L of BTK inhibitor
# [2] = biological target: T1, MINK (Homo sapiens, UniProt Q8N4C8); test: Kinase panel profiling at 1 µmol/L (mobility shift assay, Carna); type: biochemical; conditions: 1 µmol/L of BTK inhibitor
# T1 construct: purchased Carna Biosciences
# [3] = biological target: T2, PKR (Homo sapiens, UniProt P19525); test: as above; type: biochemical; conditions: 1 µmol/L of BTK inhibitor
# T2 construct: purchased Carna Biosciences
# [4] = biological target: T3, PKD1 (Homo sapiens, UniProt Q15139); test: as above; type: biochemical; conditions: 1 µmol/L of BTK inhibitor
# T3 construct: purchased Carna Biosciences
# T3 sequence (Q15139 1-912): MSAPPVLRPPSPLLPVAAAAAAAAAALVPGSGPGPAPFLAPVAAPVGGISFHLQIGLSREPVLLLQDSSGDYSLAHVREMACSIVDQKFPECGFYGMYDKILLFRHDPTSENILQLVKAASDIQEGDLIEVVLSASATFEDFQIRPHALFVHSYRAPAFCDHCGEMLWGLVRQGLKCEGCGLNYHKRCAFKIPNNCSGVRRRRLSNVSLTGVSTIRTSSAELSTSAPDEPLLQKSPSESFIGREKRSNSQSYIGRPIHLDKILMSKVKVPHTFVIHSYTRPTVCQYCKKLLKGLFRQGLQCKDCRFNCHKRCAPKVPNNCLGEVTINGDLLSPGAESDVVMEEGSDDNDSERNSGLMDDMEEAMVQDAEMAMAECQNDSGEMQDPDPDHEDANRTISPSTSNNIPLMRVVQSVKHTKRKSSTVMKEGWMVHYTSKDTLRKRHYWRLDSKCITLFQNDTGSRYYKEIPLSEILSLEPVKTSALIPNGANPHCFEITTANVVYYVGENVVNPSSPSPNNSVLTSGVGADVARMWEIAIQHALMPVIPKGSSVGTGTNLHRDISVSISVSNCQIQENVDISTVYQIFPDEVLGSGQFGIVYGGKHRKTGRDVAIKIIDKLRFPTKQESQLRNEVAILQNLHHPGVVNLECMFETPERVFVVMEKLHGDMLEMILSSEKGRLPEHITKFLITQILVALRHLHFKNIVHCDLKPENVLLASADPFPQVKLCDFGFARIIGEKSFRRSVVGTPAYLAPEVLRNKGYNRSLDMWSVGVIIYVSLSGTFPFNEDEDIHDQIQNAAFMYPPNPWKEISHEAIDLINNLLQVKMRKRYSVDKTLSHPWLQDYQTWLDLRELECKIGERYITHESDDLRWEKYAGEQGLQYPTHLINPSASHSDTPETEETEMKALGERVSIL
# [5] = biological target: T4, FYN [isoform b] (Homo sapiens, UniProt P06241); test: as above; type: biochemical; conditions: 1 µmol/L of BTK inhibitor
# T4 construct: purchased Carna Biosciences
# [6] = biological target: T5, SRC (Homo sapiens, UniProt P12931); test: as above; type: biochemical; conditions: 1 µmol/L of BTK inhibitor
# T5 construct: purchased Carna Biosciences
# [7] = biological target: T6, NEK1 (Homo sapiens, UniProt Q96PY6); test: as above; type: biochemical; conditions: 1 µmol/L of BTK inhibitor
# T6 construct: purchased Carna Biosciences
# T6 sequence (Q96PY6 1-1258): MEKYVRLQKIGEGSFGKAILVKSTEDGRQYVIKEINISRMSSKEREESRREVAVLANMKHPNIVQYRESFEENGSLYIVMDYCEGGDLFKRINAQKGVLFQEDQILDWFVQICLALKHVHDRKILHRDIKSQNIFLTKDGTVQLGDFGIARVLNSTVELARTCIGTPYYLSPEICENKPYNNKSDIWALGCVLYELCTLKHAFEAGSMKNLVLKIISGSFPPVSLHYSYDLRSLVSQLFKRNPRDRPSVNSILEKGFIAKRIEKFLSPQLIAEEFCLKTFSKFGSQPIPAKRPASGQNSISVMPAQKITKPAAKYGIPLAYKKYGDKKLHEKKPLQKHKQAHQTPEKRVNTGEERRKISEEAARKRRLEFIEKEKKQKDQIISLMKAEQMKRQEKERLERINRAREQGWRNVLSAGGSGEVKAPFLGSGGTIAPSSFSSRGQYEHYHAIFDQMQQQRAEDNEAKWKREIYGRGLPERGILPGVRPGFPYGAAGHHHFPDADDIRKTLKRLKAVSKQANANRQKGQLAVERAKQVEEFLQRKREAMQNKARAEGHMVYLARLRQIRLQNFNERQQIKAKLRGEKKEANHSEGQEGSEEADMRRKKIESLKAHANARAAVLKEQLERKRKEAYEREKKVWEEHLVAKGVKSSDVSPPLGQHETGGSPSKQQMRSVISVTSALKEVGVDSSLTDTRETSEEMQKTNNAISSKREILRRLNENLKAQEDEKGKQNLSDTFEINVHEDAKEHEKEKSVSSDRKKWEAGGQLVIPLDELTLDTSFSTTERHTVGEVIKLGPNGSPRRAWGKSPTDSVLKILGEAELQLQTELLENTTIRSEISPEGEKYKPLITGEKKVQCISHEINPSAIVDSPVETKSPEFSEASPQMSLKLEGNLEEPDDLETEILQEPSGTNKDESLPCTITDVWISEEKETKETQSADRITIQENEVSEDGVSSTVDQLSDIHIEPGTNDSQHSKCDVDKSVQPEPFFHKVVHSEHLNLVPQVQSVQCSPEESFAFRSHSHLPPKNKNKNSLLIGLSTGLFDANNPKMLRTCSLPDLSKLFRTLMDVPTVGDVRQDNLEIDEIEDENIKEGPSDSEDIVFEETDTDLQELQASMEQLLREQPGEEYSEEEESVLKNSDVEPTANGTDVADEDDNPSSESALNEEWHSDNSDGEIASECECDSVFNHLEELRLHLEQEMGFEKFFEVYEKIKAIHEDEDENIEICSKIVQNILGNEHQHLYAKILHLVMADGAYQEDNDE
# [8] = biological target: activated B-RAF (Homo sapiens, UniProt P15056); test: Surface plasmon resonance binding (Biacore 1S+)
# [9] = biological target: T7, BMX (Homo sapiens, UniProt P51813); test: Kinase panel profiling at 1 µmol/L (mobility shift assay, Carna); type: biochemical; conditions: 1 µmol/L of BTK inhibitor
# T7 construct: purchased Carna Biosciences
# T7 sequence (P51813 whole entry): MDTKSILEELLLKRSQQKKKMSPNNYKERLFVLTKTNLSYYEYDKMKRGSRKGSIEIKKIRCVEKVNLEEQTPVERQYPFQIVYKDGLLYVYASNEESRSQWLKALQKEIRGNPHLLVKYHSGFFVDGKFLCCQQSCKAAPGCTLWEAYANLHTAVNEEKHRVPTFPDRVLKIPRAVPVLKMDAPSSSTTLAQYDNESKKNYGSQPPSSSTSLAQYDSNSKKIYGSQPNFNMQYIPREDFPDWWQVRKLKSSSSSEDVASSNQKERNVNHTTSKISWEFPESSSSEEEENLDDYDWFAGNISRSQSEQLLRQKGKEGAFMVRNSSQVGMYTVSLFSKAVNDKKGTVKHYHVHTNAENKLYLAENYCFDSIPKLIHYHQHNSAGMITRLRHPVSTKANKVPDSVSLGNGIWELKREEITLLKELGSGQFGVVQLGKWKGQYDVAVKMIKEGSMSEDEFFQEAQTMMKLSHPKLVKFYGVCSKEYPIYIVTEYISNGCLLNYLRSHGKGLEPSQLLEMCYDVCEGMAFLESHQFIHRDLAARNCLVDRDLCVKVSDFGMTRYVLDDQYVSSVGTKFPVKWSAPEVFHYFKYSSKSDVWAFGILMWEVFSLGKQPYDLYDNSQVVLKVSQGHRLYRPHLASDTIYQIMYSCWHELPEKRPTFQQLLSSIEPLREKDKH
# T1 sequence (Q8N4C8 whole entry): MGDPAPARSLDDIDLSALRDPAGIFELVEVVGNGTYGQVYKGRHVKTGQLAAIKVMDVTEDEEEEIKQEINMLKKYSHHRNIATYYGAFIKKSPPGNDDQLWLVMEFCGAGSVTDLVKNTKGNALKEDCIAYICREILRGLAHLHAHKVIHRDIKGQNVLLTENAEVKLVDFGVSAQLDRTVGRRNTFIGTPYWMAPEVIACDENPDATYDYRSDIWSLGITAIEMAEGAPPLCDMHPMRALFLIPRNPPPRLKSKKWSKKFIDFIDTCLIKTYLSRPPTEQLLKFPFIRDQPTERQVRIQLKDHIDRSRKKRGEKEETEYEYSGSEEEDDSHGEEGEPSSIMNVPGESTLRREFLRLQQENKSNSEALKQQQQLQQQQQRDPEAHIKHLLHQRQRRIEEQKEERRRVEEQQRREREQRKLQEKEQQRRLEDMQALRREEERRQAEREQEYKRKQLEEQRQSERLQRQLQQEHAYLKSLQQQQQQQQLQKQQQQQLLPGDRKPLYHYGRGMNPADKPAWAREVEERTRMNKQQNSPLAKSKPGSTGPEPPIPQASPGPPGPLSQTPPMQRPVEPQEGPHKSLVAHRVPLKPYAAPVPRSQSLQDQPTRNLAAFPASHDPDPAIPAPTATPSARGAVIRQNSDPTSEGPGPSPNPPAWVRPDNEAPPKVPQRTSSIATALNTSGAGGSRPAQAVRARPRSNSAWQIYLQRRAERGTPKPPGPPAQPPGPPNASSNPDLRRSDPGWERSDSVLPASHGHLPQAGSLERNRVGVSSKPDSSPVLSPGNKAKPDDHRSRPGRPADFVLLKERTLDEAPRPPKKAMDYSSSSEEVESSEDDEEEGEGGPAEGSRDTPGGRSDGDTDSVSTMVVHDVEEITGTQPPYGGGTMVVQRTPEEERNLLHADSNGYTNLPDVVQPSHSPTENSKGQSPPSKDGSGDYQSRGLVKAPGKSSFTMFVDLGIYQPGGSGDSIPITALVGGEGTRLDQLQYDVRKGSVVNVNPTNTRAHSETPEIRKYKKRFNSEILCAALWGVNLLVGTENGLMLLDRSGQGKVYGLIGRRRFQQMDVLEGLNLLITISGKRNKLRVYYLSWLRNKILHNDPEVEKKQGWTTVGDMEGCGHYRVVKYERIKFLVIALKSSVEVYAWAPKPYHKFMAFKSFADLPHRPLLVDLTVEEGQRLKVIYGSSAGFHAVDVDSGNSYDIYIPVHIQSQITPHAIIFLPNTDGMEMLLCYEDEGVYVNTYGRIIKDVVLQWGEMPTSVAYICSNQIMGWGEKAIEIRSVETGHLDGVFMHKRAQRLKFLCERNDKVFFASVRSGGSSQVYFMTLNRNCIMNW
# T4 sequence (P06241 1-534 isoform P06241-2): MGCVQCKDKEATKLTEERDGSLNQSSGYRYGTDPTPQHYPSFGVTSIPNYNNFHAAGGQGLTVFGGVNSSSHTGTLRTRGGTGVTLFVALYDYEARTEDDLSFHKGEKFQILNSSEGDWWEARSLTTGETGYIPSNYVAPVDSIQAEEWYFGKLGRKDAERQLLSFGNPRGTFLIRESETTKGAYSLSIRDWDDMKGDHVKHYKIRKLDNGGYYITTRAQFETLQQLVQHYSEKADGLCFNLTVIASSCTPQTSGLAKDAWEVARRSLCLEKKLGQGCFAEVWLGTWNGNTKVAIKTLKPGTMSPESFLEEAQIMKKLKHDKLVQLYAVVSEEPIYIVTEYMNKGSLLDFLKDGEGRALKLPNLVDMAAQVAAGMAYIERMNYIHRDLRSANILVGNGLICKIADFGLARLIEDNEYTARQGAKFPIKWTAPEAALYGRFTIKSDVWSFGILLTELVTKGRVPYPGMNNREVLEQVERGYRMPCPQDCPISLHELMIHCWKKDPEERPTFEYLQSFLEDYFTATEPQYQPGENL
# Chain of activated B-RAF (P15056 whole entry): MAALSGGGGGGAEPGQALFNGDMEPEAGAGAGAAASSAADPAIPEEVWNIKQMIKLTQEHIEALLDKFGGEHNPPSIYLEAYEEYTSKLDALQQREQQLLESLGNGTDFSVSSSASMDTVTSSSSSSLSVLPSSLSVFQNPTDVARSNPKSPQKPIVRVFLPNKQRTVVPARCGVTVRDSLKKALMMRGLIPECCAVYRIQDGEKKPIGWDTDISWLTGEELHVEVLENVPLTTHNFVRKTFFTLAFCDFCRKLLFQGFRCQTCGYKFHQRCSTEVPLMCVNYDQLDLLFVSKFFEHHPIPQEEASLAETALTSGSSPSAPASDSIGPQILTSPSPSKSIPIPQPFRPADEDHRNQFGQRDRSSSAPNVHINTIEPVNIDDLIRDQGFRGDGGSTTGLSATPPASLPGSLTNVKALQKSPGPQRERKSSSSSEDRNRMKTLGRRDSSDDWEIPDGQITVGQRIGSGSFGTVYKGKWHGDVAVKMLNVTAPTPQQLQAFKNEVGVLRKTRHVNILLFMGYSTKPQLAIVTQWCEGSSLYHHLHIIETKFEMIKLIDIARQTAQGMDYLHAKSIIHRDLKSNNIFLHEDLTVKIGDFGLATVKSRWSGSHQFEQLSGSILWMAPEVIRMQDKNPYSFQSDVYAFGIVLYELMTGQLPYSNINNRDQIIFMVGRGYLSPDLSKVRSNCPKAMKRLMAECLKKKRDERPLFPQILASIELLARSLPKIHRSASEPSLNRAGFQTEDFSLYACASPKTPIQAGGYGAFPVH
# T2 sequence (P19525 whole entry): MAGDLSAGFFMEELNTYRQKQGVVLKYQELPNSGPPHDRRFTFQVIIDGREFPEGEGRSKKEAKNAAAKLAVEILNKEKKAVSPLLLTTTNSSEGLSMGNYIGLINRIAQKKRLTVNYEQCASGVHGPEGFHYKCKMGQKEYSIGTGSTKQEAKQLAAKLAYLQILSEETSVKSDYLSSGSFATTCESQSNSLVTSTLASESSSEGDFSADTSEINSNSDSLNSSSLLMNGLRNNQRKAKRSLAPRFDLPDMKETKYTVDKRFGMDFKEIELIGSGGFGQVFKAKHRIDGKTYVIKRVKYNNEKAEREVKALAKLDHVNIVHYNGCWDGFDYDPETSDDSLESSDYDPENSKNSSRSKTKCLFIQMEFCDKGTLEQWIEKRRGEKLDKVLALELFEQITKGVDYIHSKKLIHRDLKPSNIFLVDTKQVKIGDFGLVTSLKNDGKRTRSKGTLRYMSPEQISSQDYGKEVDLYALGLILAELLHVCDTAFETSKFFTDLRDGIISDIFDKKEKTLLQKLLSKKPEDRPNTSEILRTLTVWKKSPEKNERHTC
# T5 sequence (P12931 whole entry): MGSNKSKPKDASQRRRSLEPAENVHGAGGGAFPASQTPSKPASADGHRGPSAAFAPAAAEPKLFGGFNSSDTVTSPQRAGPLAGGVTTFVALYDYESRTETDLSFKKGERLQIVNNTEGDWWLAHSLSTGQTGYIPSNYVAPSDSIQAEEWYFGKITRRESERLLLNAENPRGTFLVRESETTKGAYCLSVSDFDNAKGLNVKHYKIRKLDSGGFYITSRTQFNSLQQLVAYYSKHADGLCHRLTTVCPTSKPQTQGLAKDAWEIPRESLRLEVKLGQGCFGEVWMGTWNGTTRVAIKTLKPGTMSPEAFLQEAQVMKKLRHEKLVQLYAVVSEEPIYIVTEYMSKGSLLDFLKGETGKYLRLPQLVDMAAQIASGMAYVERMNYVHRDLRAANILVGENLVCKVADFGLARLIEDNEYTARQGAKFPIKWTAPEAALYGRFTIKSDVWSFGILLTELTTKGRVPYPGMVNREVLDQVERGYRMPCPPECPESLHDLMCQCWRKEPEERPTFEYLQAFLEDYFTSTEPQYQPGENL
# Chain of YES (P07947 whole entry): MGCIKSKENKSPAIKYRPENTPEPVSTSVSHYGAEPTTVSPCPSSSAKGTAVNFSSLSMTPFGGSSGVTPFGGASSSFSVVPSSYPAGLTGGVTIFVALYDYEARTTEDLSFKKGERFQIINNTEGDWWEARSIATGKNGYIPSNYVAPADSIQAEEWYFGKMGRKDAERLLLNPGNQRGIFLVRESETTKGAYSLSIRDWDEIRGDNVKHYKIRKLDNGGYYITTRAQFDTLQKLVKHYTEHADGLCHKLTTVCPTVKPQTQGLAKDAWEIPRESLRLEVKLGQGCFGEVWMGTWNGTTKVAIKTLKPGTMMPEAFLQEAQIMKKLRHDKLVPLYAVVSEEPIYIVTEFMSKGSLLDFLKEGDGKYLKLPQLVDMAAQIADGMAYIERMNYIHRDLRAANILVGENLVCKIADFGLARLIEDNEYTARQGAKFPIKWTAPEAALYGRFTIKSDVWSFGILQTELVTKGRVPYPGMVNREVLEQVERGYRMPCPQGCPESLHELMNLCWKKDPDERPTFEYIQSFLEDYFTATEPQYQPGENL
Structure (SMILES),Percentage inhibition of kinase enzyme activity [1],Percentage inhibition of kinase enzyme activity [2],Percentage inhibition of kinase enzyme activity [3],Percentage inhibition of kinase enzyme activity [4],Percentage inhibition of kinase enzyme activity [5],Percentage inhibition of kinase enzyme activity [6],Percentage inhibition of kinase enzyme activity [7],"difference in affinity, MEK1 versus B-RAF ([8]; SPR K D B-RAF versus K D MEK1)","log (kd) ([8]; SPR, B-RAF)","log(ka) ([8]; SPR, B-RAF)","t1/2 ([8]; SPR, B-RAF)",Percentage inhibition of kinase enzyme activity [9]
CC#CC(=O)N1CCC[C@H]1c1nc(-c2ccc(C(=O)Nc3ccccn3)cc2)c2c(N)nccn12 [acalabrutinib],21.84%,-1.13%,7.19%,-9.48%,-1.25%,10.46%,-7.46%,,,,,
C=CC(=O)N1CCC[C@@H](n2nc(-c3ccc(Oc4ccccc4)cc3)c3c(N)ncnc32)C1 [ibrutinib],,-6.41%,5.63%,3.22%,86.77%,,3.73%,,,,,
O=C(c1ccc(Oc2ccccc2)cc1Cl)c1c[nH]c2ncnc(N[C@@H]3CC[C@@H](CO)OC3)c12 [nemtabrutinib],,46.67%,29.57%,7.45%,,,-1.75%,120 fold,-1.26,4.66,12.5 s,100.05%
COc1ccc(F)cc1C(=O)NCc1ccc(-c2nn([C@@H](C)C(F)(F)F)c(N)c2C(N)=O)cc1 [pirtobrutinib],72.60%,-0.79%,7.39%,4.89%,15.19%,4.75%,-2.24%,,,,,29.35%
